Assay results from patent publication US20110039763A1, “TARGETED ANTIMICROBIAL MOIETIES” (C3 JIAN, INC., priority 2009, published 2011).
Entries after “also recorded” stand apart in the source; their conditions may differ.

Assays:
[1] = tested on: microorganisms; assay: Peptide activities: targeting/binding, antimicrobial, growth or phenotype altering (Tables 7, 8); format: cell-based; conditions: peptides having multiple activities
[2] = tested on: microorganisms; assay: Targeting peptide binding to target microorganisms (Tables 3, 10, 12); conditions: microorganism(s) the targeting peptide binds; binding in aqueous buffers varied with peptide solubility, preferably 1x PBS
[3] = tested on: microorganisms; assay: Morphology, biofilm and growth disrupting peptides (Table 5); format: cell-based; design: key: A: Peptide aggregates; B: Less hyphal formation; Clumps; Diffuse clumps and small polyps; F: Diffuse growth; H: Thin; I: Growth inhibition; Microcolony formation; Rippled; Small polyps; Thick; W: Halo formation on top, microlonies on bottom
From the text: In certain embodiments peptides that induce alterations in phenotype or other biological activities can also be used as antimicrobial effector moieties.

Which Activities [1] does the source give for “PF-776: peptide having multiple activities (VSILLYLSATIILPNVLRLLVARAIIVRV; Peptide with targeting and/or antimicrobial activity)” here?
The Activities was “G B”.

What about the “Target(s)” value [2] of the same substance?
Its value is “S. epidermidis and M. luteus and P. mirabilis and C. albicans and MRSA and S. pneumoniae and E. faecalis”.

What about the “Organism, effect” value ([3]; E. coli) of the same substance?
Its value is “E. coli (C)”.

And the “Organism, effect” value ([3]; M. luteus)?
Its value is “M. luteus (C)”.

And the “Organism, effect” value ([3]; MRSA)?
Its value is “MRSA (D)”.

And the “Organism, effect” value ([3]; S. epidermidis)?
Its value is “S. epidermidis (D)”.

And the “Organism, effect” value ([3]; S. mutans)?
Its value is “S. mutans (D)”.

What about the “Organism, effect” value ([3]; S. pneumoniae) of the same substance?
Its value is “S. pneumoniae (C)”.

Which Activities [1] does the source give for “PF-C052: peptide having multiple activities (SRFRNGV; Peptide with targeting and/or antimicrobial activity)” here?
Its Activities is “G B”.

And the “Target(s)” value [2]?
The value was “A. naeslundii; also recorded: F. nucleatum; also recorded: S. mutans”.

What about the “Organism, effect” value ([3]; P. gingivalis) of the same substance?
Its value is “P. gingivalis (H)”.

How did the Activities [1] turn out when “PF-C055: peptide having multiple activities (YNLSIYIYFLHTITIAGLITLPFII; Peptide with targeting and/or antimicrobial activity)” was run?
The Activities was “G B”.

And the “Target(s)” value [2]?
Its value is “A. naeslundii; also recorded: F. nucleatum; also recorded: P. gingivalis; also recorded: S. mutans”.

And the “Organism, effect” value ([3]; F. nucleatum)?
The value was “F. nucleatum (T)”.

And the “Organism, effect” value ([3]; S. mutans)?
The value was “S. mutans (I)”.

With “PF-C057: peptide having multiple activities (YFWWYWVQDCIPYKNNEVWLELSNNMK; Peptide with targeting and/or antimicrobial activity)” as the substance, how does the Activities [1] read?
Its Activities is “G B”.

And the “Target(s)” value [2]?
The value was “A. naeslundii; also recorded: F. nucleatum; also recorded: P. gingivalis; also recorded: S. mutans”.

What about the “Organism, effect” value ([3]; S. mutans) of the same substance?
Its value is “S. mutans (I)”.

“PF-C062: peptide having multiple activities (PLARATEVVATLFIICSLLLYLTR; Peptide with targeting and/or antimicrobial activity)” was tested. Which Activities [1] did it give?
The Activities was “G B”.

What about the “Target(s)” value [2] of the same substance?
Its value is “A. naeslundii; also recorded: F. nucleatum; also recorded: P. gingivalis; also recorded: S. mutans; also recorded: T. denticola”.

And the “Organism, effect” value ([3]; F. nucleatum)?
The value was “F. nucleatum (T)”.

And the “Organism, effect” value ([3]; S. mutans)?
The value was “S. mutans (I)”.

Which Activities [1] does the source give for “PF-C064: peptide having multiple activities (DEEALEMGANLYAQFAIDFLNSKK; Peptide with targeting and/or antimicrobial activity)” here?
The Activities was “G B”.

What about the “Target(s)” value [2] of the same substance?
The value was “A. naeslundii; also recorded: F. nucleatum; also recorded: P. gingivalis; also recorded: S. mutans; also recorded: T. denticola”.

What about the “Organism, effect” value ([3]; F. nucleatum) of the same substance?
The value was “F. nucleatum (T)”.

With “PF-C069: peptide having multiple activities (NALMLREMQLAKNIKVEVTDVLSNKKYC; Peptide with targeting and/or antimicrobial activity)” as the substance, how does the Activities [1] read?
Its Activities is “G B”.

What about the “Target(s)” value [2] of the same substance?
The value was “A. naeslundii; also recorded: F. nucleatum; also recorded: P. gingivalis; also recorded: S. mutans; also recorded: T. denticola”.

What about the “Organism, effect” value ([3]; F. nucleatum) of the same substance?
Its value is “F. nucleatum (T)”.

What does the source list for “PF-C071: peptide having multiple activities (QVIVKIL; Peptide with targeting and/or antimicrobial activity)”?
Activities [1]: G B; Target(s) [2]: A. naeslundii; also recorded: F. nucleatum; also recorded: S. mutans; Organism, effect ([3]; F. nucleatum): F. nucleatum (T)

“PF-C075: peptide having multiple activities (KALVISVFAIVFSIIFVKFFYWRDKK; Peptide with targeting and/or antimicrobial activity)” was tested. Which Activities [1] did it give?
Its Activities is “G B”.

What about the “Target(s)” value [2] of the same substance?
Its value is “A. naeslundii; also recorded: F. nucleatum; also recorded: P. gingivalis; also recorded: S. mutans; also recorded: T. denticola”.

What about the “Organism, effect” value ([3]; F. nucleatum) of the same substance?
Its value is “F. nucleatum (T)”.

And the “Organism, effect” value ([3]; P. gingivalis)?
The value was “P. gingivalis (R)”.

And the “Organism, effect” value ([3]; S. mutans)?
The value was “S. mutans (F)”.

For “PF-C084: peptide having multiple activities (FFSVIFLFGLNYLICNSPLFNILR; Peptide with targeting and/or antimicrobial activity)”, which Activities [1] is on record?
The Activities was “G B”.

What about the “Target(s)” value [2] of the same substance?
The value was “A. naeslundii; also recorded: F. nucleatum; also recorded: P. gingivalis; also recorded: S. mutans”.

And the “Organism, effect” value ([3]; F. nucleatum)?
Its value is “F. nucleatum (T)”.

And the “Organism, effect” value ([3]; P. gingivalis)?
The value was “P. gingivalis (R)”.

What about the “Organism, effect” value ([3]; S. mutans) of the same substance?
The value was “S. mutans (F)”.

What does the source list for “PF-C088: peptide having multiple activities (DIANNILNSVSERLIIA; Peptide with targeting and/or antimicrobial activity)”?
Activities [1]: G B; Target(s) [2]: A. naeslundii; also recorded: F. nucleatum; also recorded: P. gingivalis; also recorded: S. mutans; also recorded: T. denticola; Organism, effect ([3]; F. nucleatum): F. nucleatum (H); Organism, effect ([3]; P. gingivalis): P. gingivalis (R); Organism, effect ([3]; S. mutans): S. mutans (I)

Which Activities [1] does the source give for “PF-C131: peptide having multiple activities (chain 1 QWIVAKREIRMHIYCHISVIHVIIFFG; chain 2 QWIVAKREIRMHIYCHISVIHVIIFFG; Peptide with targeting and/or antimicrobial activity)” here?
Its Activities is “G B”.

What about the “Target(s)” value [2] of the same substance?
The value was “A. naeslundii; also recorded: F. nucleatum; also recorded: P. gingivalis; also recorded: S. mutans”.

And the “Organism, effect” value ([3]; F. nucleatum)?
The value was “F. nucleatum (T)”.

What about the “Organism, effect” value ([3]; S. mutans) of the same substance?
Its value is “S. mutans (F)”.

How did the Activities [1] turn out when “PF-C136: peptide having multiple activities (chain 1 LILSYQASVYPLFAYLCQQKDY; chain 2 LILSYQASVYPLFAYLCQQKDY; Peptide with targeting and/or antimicrobial activity)” was run?
The Activities was “G B”.

And the “Target(s)” value [2]?
Its value is “A. naeslundii; also recorded: F. nucleatum; also recorded: P. gingivalis; also recorded: S. mutans; also recorded: T. denticola”.

And the “Organism, effect” value ([3]; F. nucleatum)?
Its value is “F. nucleatum (C)”.

What about the “Organism, effect” value ([3]; P. gingivalis) of the same substance?
Its value is “P. gingivalis (R)”.

“PF-C137: peptide having multiple activities (chain 1 QRMYWFKRGFETGDFSAGDTFAELK; chain 2 QRMYWFKRGFETGDFSAGDTFAELK; Peptide with targeting and/or antimicrobial activity)” was tested. Which Activities [1] did it give?
The Activities was “G B”.

What about the “Target(s)” value [2] of the same substance?
Its value is “A. naeslundii; also recorded: F. nucleatum; also recorded: P. gingivalis; also recorded: S. mutans”.

And the “Organism, effect” value ([3]; F. nucleatum)?
Its value is “F. nucleatum (T)”.

For “PF-C139: peptide having multiple activities (chain 1 LLASHPERLSLGVFFVYRVLHLLLENT; chain 2 LLASHPERLSLGVFFVYRVLHLLLENT; Peptide with targeting and/or antimicrobial activity)”, which Activities [1] is on record?
The Activities was “G B”.

And the “Target(s)” value [2]?
Its value is “A. naeslundii; also recorded: F. nucleatum; also recorded: P. gingivalis; also recorded: S. mutans; also recorded: T. denticola”.

What about the “Organism, effect” value ([3]; S. mutans) of the same substance?
Its value is “S. mutans (F)”.

With “PF-C142: peptide having multiple activities (chain 1 DFPPLSFFRRRFHAYTAPIDNFFGANPF; chain 2 DFPPLSFFRRRFHAYTAPIDNFFGANPF; Peptide with targeting and/or antimicrobial activity)” as the substance, how does the Activities [1] read?
Its Activities is “G B”.

And the “Target(s)” value [2]?
Its value is “A. naeslundii; also recorded: F. nucleatum; also recorded: P. gingivalis; also recorded: S. mutans; also recorded: T. denticola”.

And the “Organism, effect” value ([3]; S. mutans)?
Its value is “S. mutans (I)”.

What does the source list for “PF-C143: peptide having multiple activities (chain 1 VVFGGGDRLV; chain 2 VVFGGGDRLV; Peptide with targeting and/or antimicrobial activity)”?
Activities [1]: G B; Target(s) [2]: A. naeslundii; also recorded: F. nucleatum; also recorded: P. gingivalis; also recorded: S. mutans; also recorded: T. denticola; Organism, effect ([3]; F. nucleatum): F. nucleatum (C)

Which Activities [1] does the source give for “PF-C145: peptide having multiple activities (chain 1 YGKESDP; chain 2 YGKESDP; Peptide with targeting and/or antimicrobial activity)” here?
Its Activities is “G B”.

And the “Target(s)” value [2]?
Its value is “A. naeslundii; also recorded: F. nucleatum; also recorded: P. gingivalis; also recorded: S. mutans; also recorded: T. denticola”.

What about the “Organism, effect” value ([3]; F. nucleatum) of the same substance?
Its value is “F. nucleatum (C)”.

What about the “Organism, effect” value ([3]; S. mutans) of the same substance?
The value was “S. mutans (I)”.

With “PF-C281: peptide having multiple activities (chain 1 KKEKLLTAIRLQHRAEIRGYFTIFFLFFRI; chain 2 KKEKLLTAIRLQHRAEIRGYFTIFFLFFRI; Peptide with targeting and/or antimicrobial activity)” as the substance, how does the Activities [1] read?
The Activities was “G B”.

What about the “Target(s)” value [2] of the same substance?
Its value is “A. naeslundii; also recorded: F. nucleatum; also recorded: P. gingivalis; also recorded: S. mutans; also recorded: T. denticola”.

And the “Organism, effect” value ([3]; S. mutans)?
Its value is “S. mutans (F)”.

“PF-C291: peptide having multiple activities (chain 1 HPFLTGTGCPLFLIFRLFFVKAYFSFTVF; chain 2 HPFLTGTGCPLFLIFRLFFVKAYFSFTVF; Peptide with targeting and/or antimicrobial activity)” was tested. Which Activities [1] did it give?
The Activities was “G B”.

What about the “Target(s)” value [2] of the same substance?
Its value is “A. naeslundii; also recorded: F. nucleatum; also recorded: P. gingivalis; also recorded: S. mutans”.

And the “Organism, effect” value ([3]; F. nucleatum)?
Its value is “F. nucleatum (T)”.

What about the “Organism, effect” value ([3]; S. mutans) of the same substance?
Its value is “S. mutans (F)”.
